Experimental data published in patent US8703964B2, “Bendamustine cyclopolysaccharide compositions” (Supratek Pharma Inc., priority 2009, dated 2014).
Read-outs that look alike come from different tables or passages of the source.

Legend:
[1] = Pharmacokinetics of bendamustine dosed to rats, composition with SBECD and PI2080 (Example 12); type: in vivo, Female Sprague-Dawley rats; conditions: i.v. 10 mg/kg
Description: Control: 2.5 mg/mL bendamustine hydrochloride, 4.25 mg/mL of mannitol in 0.9% NaCl; dose of 10 mg/kg
Inventive Composition: 2.5 mg/mL bendamustine hydrochloride, 40% w/w sodium sulfobutyl ether β-cyclodextrin, 1% PI2080, 4.3 mg/g mannitol in water (prepared according to the procedure set forth in Example 9); dose of 10 mg/kg.
Female Sprague-Dawley rats (250-350 g). The animals were kept three per cage with an air filter cover under light (12 h light/dark cycle, light on at 06 h00) and controlled temperature 22° C.+/−1° C. All manipulations with the animals were performed under a sterilized laminar hood. The animals had ad libitum access to Purina mouse chow and water. The animals were fasted overnight and anesthetized, before dosing. Dosing and Sampling: Inventive bendamustine composition and control were administered intravenously to rats in tail vein. Blood samples were collected after time intervals of 5, 15, 30, 45 min, 1, 1.5, 2 and 3 hrs post-injection, The rats were anesthetised by general inhalation of isoflurane. The blood samples were collected from the jugular vein with heparinized tube and kept on ice. The blood was immediately centrifuged, and plasma was separated. The plasma samples were immediately extracted. Sample Extraction and Analysis: The plasma samples 0.100 mL were transferred to plastic tubes. The samples were extracted with 0.400 mL of 100 mM HCl in acetonitrile while being shaken vigorously for 30 seconds. The samples were centrifuged at 10000 RPM for 5 minutes. The supernatant was separated. The samples were frozen in dry ice and kept at −80° C. until HPLC analysis. The aliquots of 20 microliters were injected into HPLC for analysis. The HPLC Conditions: C18 reversed phase column 50×4.6 mm, Symmetry/Shield 3.5 micrometer Column temperature 30° C. Flow rate 1.5 mL/min Injection volume 20 microliters Fluorescence detection at wavelengths: excitation 327 nm, emission 420 nm Mobile phase: Buffer A: 5% acetonitrile 0.1% TFA Buffer B: 90% acetonitrile 0.1% TFA Run time: 10 min The improved pharmacokinetic profiles of Bendamustine for tested inventive composition versus the control is shown in Table 2 below.

RPMI8226 cells = test: Cytotoxicity of bendamustine compositions pre-incubated with media, WST-1 (Example 23); type: cell-based; conditions: for Cell growth: RPMI8226, 72 h; for IC50: Homo sapiens, RPMI-8226, read-out: IC50 of bendamustine, RPMI8226
Description: BM and SBECD/LMWP formulation (40 mg/ml BM in 20% SBECD, 1% LMWP) were incubated in DMEM medium containing 10% FBS for 0, 1, or 4 h and then were added in varying concentrations to RPMI8226 cells. During BM treatment, concentrations of SBECD and LMWP were kept constant in culture medium at […], respectively. Cells were then grown for 72 h. The drug cytotoxicity was evaluated using WST-1 procedure.

[2] = Pharmacokinetics of bendamustine dosed to rats, composition with SBECD and LMWP (Example 25); type: in vivo, Female Sprague-Dawley rats; conditions: i.v. 10 mg/kg
Description: Control: 5 mg/mL bendamustine hydrochloride, 10.2 mg/mL of mannitol in 0.9% NaCl; dose of 10 mg/kg
5 mg/mL bendamustine hydrochloride, 20% w/w sodium sulfobutyl ether β-cyclodextrin, 10.2 mg/g mannitol in water; dose of 10 mg/kg.
5 mg/mL bendamustine hydrochloride, 20% w/w sodium sulfobutyl ether β-cyclodextrin, 1% LMWP, 10.2 mg/g mannitol in water; dose of 10 mg/kg.
Female Sprague-Dawley rats (250-350 g). The animals were kept three per cage with an air filter cover under light (12 h light/dark cycle, light on at 06 h00) and controlled temperature 22° C.+/−1° C. All manipulations with the animals were performed under a sterilized laminar hood. The animals had ad libitum access to Purina mouse chow and water. The animals were fasted overnight and anesthetized, before dosing. Dosing and Sampling: The bendamustine compositions and control were administered intravenously to rats via a tail vein. Blood samples were collected 5, 15, 30, 45 min, 1, 1.5, 2, 3 and 4 hrs post-injection. The rats were anesthetized by general inhalation of isoflurane. The blood samples were collected from the jugular vein with a heparinized tube and kept on ice. The sample was immediately centrifuged, and the plasma separated. The plasma samples were immediately extracted. Sample Extraction and Analysis: The plasma samples 0.100 mL were transferred to plastic tubes. The samples were extracted with 0.400 mL of 100 mM HCl in acetonitrile while being shaken vigorously for 30 seconds. The samples were centrifuged at 10000 RPM for 5 minutes. The supernatant was separated. The samples were frozen in dry ice and kept at −80° C. until HPLC analysis. The aliquots of 20 microliters were injected into HPLC for analysis. The HPLC Conditions: C18 reversed phase column 50×4.6 mm, Symmetry/Shield 3.5 micrometer Column temperature 30° C. Flow rate 1.5 mL/min Injection volume 20 microliters Fluorescence detection at wavelengths: excitation 327 nm, emission 420 nm Mobile phase: Buffer A: 5% acetonitrile 0.1% TFA Buffer B: 90% acetonitrile 0.1% TFA Run time: 10 min The pharmacokinetic profiles of Bendamustine for tested composition versus the control is shown in Table 9 below.

## Cn1c(CCCC(=O)O)nc2cc(N(CCCl)CCCl)ccc21 [BM, 4-[5-[bis(2-chloroethyl)amino]-1-methylbenzimidazol-2-yl]butanoic acid]
[1]; female, Sprague-Dawley, rat, plasma, iv, 0.08 h post injection, read-out: Concentration of bendamustine in rat plasma, Mean (SEM)
  concentration at 0.08 h: 6040 ng/mL
[1]; female, Sprague-Dawley, rat, plasma, iv, 0.25 h post injection, read-out: Concentration of bendamustine in rat plasma, Mean (SEM)
  concentration at 0.25 h: 2430 ng/mL
[1]; female, Sprague-Dawley, rat, plasma, iv, 0.5 h post injection, read-out: Concentration of bendamustine in rat plasma, Mean (SEM)
  concentration at 0.5 h: 520 ng/mL
[1]; female, Sprague-Dawley, rat, plasma, iv, 0.75 h post injection, read-out: Concentration of bendamustine in rat plasma, Mean (SEM)
  concentration at 0.75 h: 145 ng/mL
[1]; female, Sprague-Dawley, rat, plasma, iv, 1.5 h post injection, read-out: Concentration of bendamustine in rat plasma, Mean (SEM)
  concentration at 1.5 h: 8 ng/mL
[1]; female, Sprague-Dawley, rat, plasma, iv, 2 h post injection, read-out: Concentration of bendamustine in rat plasma, Mean (SEM)
  concentration at 2 h: 2 ng/mL
[1]; 1 h post injection
  Concentration of bendamustine in rat plasma, Mean (SEM): 48 (11) ng/mL
[1]; 3 h post injection
  Concentration of bendamustine in rat plasma, Mean (SEM): 0 (1) ng/mL
RPMI8226 cells; Bendamustine 1 uM, pre-incubated in medium 0 h
  Cell growth: 100%
RPMI8226 cells; Bendamustine 1 uM, pre-incubated in medium 1 h
  Cell growth: 100%
RPMI8226 cells; Bendamustine 1 uM, pre-incubated in medium 4 h
  Cell growth: 100%
RPMI8226 cells; Bendamustine 15 uM, pre-incubated in medium 0 h
  Cell growth: 83%
RPMI8226 cells; Bendamustine 15 uM, pre-incubated in medium 1 h
  Cell growth: 100%
RPMI8226 cells; Bendamustine 15 uM, pre-incubated in medium 4 h
  Cell growth: 100%
RPMI8226 cells; Bendamustine 31 uM, pre-incubated in medium 0 h
  Cell growth: 70%
RPMI8226 cells; Bendamustine 31 uM, pre-incubated in medium 1 h
  Cell growth: 100%
RPMI8226 cells; Bendamustine 31 uM, pre-incubated in medium 4 h
  Cell growth: 100%
RPMI8226 cells; Bendamustine 62 uM, pre-incubated in medium 0 h
  Cell growth: 46%
RPMI8226 cells; Bendamustine 62 uM, pre-incubated in medium 1 h
  Cell growth: 106%
RPMI8226 cells; Bendamustine 62 uM, pre-incubated in medium 4 h
  Cell growth: 104%
RPMI8226 cells; Bendamustine 125 uM, pre-incubated in medium 0 h
  Cell growth: 11%
RPMI8226 cells; Bendamustine 125 uM, pre-incubated in medium 1 h
  Cell growth: 20%
RPMI8226 cells; Bendamustine 125 uM, pre-incubated in medium 4 h
  Cell growth: 105%
RPMI8226 cells; Bendamustine 250 uM, pre-incubated in medium 0 h
  Cell growth: −23%
RPMI8226 cells; Bendamustine 250 uM, pre-incubated in medium 1 h
  Cell growth: −45%
RPMI8226 cells; Bendamustine 250 uM, pre-incubated in medium 4 h
  Cell growth: 75%
RPMI8226 cells; Bendamustine 500 uM, pre-incubated in medium 0 h
  Cell growth: −87%
RPMI8226 cells; Bendamustine 500 uM, pre-incubated in medium 1 h
  Cell growth: −85%
RPMI8226 cells; Bendamustine 500 uM, pre-incubated in medium 4 h
  Cell growth: 8%
RPMI8226 cells; Bendamustine 1000 uM, pre-incubated in medium 0 h
  Cell growth: −98%
RPMI8226 cells; Bendamustine 1000 uM, pre-incubated in medium 1 h
  Cell growth: −102%
RPMI8226 cells; Bendamustine 1000 uM, pre-incubated in medium 4 h
  Cell growth: −99%
RPMI8226 cells; time of pre-incubation 0 h
  IC50: 62 µM
RPMI8226 cells; time of pre-incubation 1 h
  IC50: 106 µM
RPMI8226 cells; time of pre-incubation 4 h
  IC50: 390 µM
RPMI8226 cells; RPMI8226, change of LC50 (50% death of cells) per hour of pre-incubation in medium
  LC50: 107 ± 11 µM/h
RPMI8226 cells; RPMI8226, change of TGI (total growth inhibition) per hour of pre-incubation in medium
  TGI: 98 ± 18 µM/h
[2]; female, Sprague-Dawley, rat, plasma, iv, 1 h post injection, read-out: Concentration of bendamustine in rat plasma, Mean (SEM)
  concentration at 1 h: 47 ng/mL
[2]; female, Sprague-Dawley, rat, plasma, iv, 3 h post injection, read-out: Concentration of bendamustine in rat plasma, Mean (SEM)
  concentration at 3 h: 0 ng/mL
[2]; 0.08 h post injection
  Concentration of bendamustine in rat plasma, Mean (SEM): 6045 (388) ng/mL
[2]; 0.25 h post injection
  Concentration of bendamustine in rat plasma, Mean (SEM): 2428 (250) ng/mL
[2]; 0.5 h post injection
  Concentration of bendamustine in rat plasma, Mean (SEM): 520 (105) ng/mL
[2]; 0.75 h post injection
  Concentration of bendamustine in rat plasma, Mean (SEM): 145 (35) ng/mL
[2]; 1.5 h post injection
  Concentration of bendamustine in rat plasma, Mean (SEM): 8 (1) ng/mL
[2]; 2 h post injection
  Concentration of bendamustine in rat plasma, Mean (SEM): 2 (1) ng/mL
